{"source": "ChEMBL document CHEMBL3774326", "about": "“New derivative of 2-(2,4-dihydroxyphenyl)thieno-1,3-thiazin-4-one (BChTT) elicits antiproliferative effect via p38-mediated cell cycle arrest in cancer cells” (Bioorg Med Chem, 2016)", "key": {"[1]": {"system": "HT-29", "assay": "Induction of cell cycle arrest in human HT-29 cells assessed as decrease in cell level at S phase after 24 to 48 hrs by propidium iodide staining-based flow cytometric analysis", "type": "functional"}, "[2]": {"system": "A549", "assay": "Antiproliferative activity against human A549 cells after 96 hrs by MTT assay", "type": "functional, cell-based"}, "[3]": {"system": "C6", "assay": "Induction of cell cycle arrest in rat C6 cells assessed as decrease in cell level at G2M phase after 24 to 48 hrs by propidium iodide staining-based flow cytometric analysis", "type": "functional"}, "[4]": {"system": "A549", "assay": "Induction of cell cycle arrest in human A549 cells assessed as accumulation at G0/G1 phase after 24 to 48 hrs by propidium iodide staining-based flow cytometric analysis", "type": "functional"}, "[5]": {"biological_target": "T1, Mitogen-activated protein kinase; ERK1/ERK2 (Homo sapiens) (UniProt P27361+P28482)", "T1 sequence (P27361 whole entry, looked up)": "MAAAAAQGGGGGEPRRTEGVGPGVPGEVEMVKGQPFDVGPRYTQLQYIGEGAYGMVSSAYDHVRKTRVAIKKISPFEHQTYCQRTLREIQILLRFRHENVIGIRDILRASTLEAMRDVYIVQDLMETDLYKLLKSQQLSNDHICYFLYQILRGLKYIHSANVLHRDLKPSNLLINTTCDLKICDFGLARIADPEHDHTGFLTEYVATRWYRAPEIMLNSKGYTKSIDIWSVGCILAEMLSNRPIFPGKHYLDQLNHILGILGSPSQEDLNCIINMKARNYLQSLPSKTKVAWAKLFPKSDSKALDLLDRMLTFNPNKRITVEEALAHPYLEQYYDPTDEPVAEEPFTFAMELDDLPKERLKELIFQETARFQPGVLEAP", "T1 sequence (P28482 whole entry, looked up)": "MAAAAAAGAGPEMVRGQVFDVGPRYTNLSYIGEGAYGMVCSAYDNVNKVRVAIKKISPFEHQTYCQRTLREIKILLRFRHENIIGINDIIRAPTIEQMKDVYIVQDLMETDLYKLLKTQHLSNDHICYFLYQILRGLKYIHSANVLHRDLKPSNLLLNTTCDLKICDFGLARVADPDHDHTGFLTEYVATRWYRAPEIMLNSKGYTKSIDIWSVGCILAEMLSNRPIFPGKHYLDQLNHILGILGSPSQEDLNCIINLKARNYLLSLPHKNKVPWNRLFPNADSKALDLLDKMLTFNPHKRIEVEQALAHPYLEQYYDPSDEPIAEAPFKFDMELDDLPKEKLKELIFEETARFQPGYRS", "assay": "Effect on ERK1/2 phosphorylation in human A549 cells at 10 to 50 uM after 0.5 to 24 hrs by Western blot analysis", "type": "cell-based"}, "[6]": {"assay": "Cytotoxicity against HSF assessed as cell viability at 10 to 100 uM after 24 hrs by LDH assay", "settings": "human"}, "[7]": {"system": "C6", "assay": "Inhibition of DNA synthesis in rat C6 cells assessed as BrdU incorporation after 48 hrs by ELISA", "type": "functional, cell-based"}, "[8]": {"system": "C6", "assay": "Effect on c-myc expression in rat C6 cells at 10 to 50 uM after 0.5 to 24 hrs by Western blot analysis", "type": "functional, cell-based"}, "[9]": {"biological_target": "T1, Mitogen-activated protein kinase; ERK1/ERK2 (Homo sapiens)", "assay": "Effect on ERK1/2 phosphorylation in human HT-29 cells at 10 to 50 uM after 0.5 to 24 hrs by Western blot analysis", "type": "cell-based"}, "[10]": {"biological_target": "T2, MAP kinase p38 (Homo sapiens) (UniProt O15264+Q15759+Q16539+P53778)", "assay": "Increase in phosphorylated p38 level in human HT-29 cells after 0.5 to 24 hrs by Western blot analysis", "type": "cell-based"}, "[11]": {"biological_target": "T2, MAP kinase p38 (Homo sapiens)", "assay": "Increase in phosphorylated p38 level in human A549 cells after 0.5 hrs by Western blot analysis", "type": "cell-based"}, "[12]": {"system": "C6", "assay": "Antiproliferative activity against rat C6 cells after 96 hrs by MTT assay", "type": "functional, cell-based"}, "[13]": {"system": "C6", "assay": "Increase in phosphorylated p38 level in rat C6 cells at 10 to 50 uM after 24 hrs by Western blot analysis", "type": "cell-based"}, "[14]": {"system": "A549", "assay": "Induction of cell cycle arrest in human A549 cells assessed as decrease in cell level at S phase after 24 to 48 hrs by propidium iodide staining-based flow cytometric analysis", "type": "functional"}, "[15]": {"system": "HT-29", "assay": "Induction of cell cycle arrest in human HT-29 cells assessed as decrease in cell level at G2M phase after 24 to 48 hrs by propidium iodide staining-based flow cytometric analysis", "type": "functional"}, "[16]": {"system": "HT-29", "assay": "Effect on c-myc expression in human HT-29 cells at 10 to 50 uM after 0.5 to 24 hrs by Western blot analysis", "type": "functional, cell-based"}, "[17]": {"biological_target": "Mitogen-activated protein kinase 1 and 3 (ERK2 and ERK1) (Rattus norvegicus) (UniProt P63086+P21708)", "sequence (P21708 whole entry, looked up)": "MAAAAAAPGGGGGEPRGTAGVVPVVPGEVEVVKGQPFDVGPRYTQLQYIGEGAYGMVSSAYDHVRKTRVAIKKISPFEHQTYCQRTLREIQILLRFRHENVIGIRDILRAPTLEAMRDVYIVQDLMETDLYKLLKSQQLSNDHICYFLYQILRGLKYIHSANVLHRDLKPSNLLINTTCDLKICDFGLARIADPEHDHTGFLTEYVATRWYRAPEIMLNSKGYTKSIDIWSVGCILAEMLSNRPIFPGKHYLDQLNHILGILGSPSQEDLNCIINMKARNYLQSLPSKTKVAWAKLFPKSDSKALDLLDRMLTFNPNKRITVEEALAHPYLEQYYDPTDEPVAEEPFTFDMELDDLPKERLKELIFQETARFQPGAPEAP", "sequence (P63086 whole entry, looked up)": "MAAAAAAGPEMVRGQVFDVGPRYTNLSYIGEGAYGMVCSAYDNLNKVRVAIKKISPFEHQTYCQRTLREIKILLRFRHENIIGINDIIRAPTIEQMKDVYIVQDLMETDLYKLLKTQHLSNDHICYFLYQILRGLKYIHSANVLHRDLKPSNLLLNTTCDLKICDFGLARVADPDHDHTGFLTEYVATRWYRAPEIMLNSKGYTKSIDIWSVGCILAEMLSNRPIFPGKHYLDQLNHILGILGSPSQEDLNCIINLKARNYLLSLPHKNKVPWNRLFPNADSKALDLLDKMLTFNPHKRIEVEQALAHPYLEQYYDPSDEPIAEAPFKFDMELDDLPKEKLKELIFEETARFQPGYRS", "assay": "Effect on ERK1/2 phosphorylation in rat C6 cells at 10 to 50 uM after 0.5 to 24 hrs by Western blot analysis", "type": "cell-based"}, "[18]": {"system": "A549", "assay": "Decrease in cyclin D1 expression in human A549 cells at 50 uM after 3 to 24 hrs by Western blot analysis", "type": "functional, cell-based"}, "[19]": {"system": "C6", "assay": "Increase in phosphorylated p38 level in rat C6 cells after 0.5 to 3 hrs by Western blot analysis", "type": "cell-based"}, "[20]": {"system": "A549", "assay": "Inhibition of DNA synthesis in human A549 cells assessed as BrdU incorporation after 48 hrs by ELISA", "type": "functional, cell-based"}, "[21]": {"assay": "Cytotoxicity against rat OLN93 cells assessed as cell viability at 10 to 100 uM after 24 hrs by LDH assay", "type": "cell-based"}, "[22]": {"system": "HT-29", "assay": "Decrease in cyclin D1 expression in human HT-29 cells at 50 uM after 3 to 24 hrs by Western blot analysis", "type": "functional, cell-based"}, "[23]": {"biological_target": "T2, MAP kinase p38 (Homo sapiens)", "assay": "Increase in phosphorylated p38 level in human A549 cells at 10 to 50 uM after 24 hrs by Western blot analysis", "type": "cell-based"}, "[24]": {"system": "C6", "assay": "Decrease in cyclin D1 expression in rat C6 cells at 50 uM after 0.5 to 24 hrs by Western blot analysis", "type": "functional, cell-based"}, "[25]": {"system": "A549", "assay": "Effect on c-myc expression in human A549 cells at 10 to 50 uM after 0.5 to 24 hrs by Western blot analysis", "type": "functional, cell-based"}, "[26]": {"system": "C6", "assay": "Induction of cell cycle arrest in rat C6 cells assessed as decrease in cell level at S phase after 24 to 48 hrs by propidium iodide staining-based flow cytometric analysis", "type": "functional"}, "[27]": {"system": "HT-29", "assay": "Effect on CREB expression in human HT-29 cells at 10 to 50 uM after 0.5 to 24 hrs by Western blot analysis", "type": "functional, cell-based"}, "[28]": {"system": "HT-29", "assay": "Inhibition of DNA synthesis in human HT-29 cells assessed as BrdU incorporation after 48 hrs by ELISA", "type": "functional, cell-based"}, "[29]": {"system": "C6", "assay": "Effect on CREB expression in rat C6 cells at 10 to 50 uM after 0.5 to 24 hrs by Western blot analysis", "type": "functional, cell-based"}, "[30]": {"assay": "Cytotoxicity against rat FaO cells assessed as cell viability at 10 to 100 uM after 24 hrs by LDH assay", "type": "cell-based"}, "[31]": {"assay": "Cytotoxicity against rat FaO cells assessed as cell viability at 100 uM after 24 hrs by LDH assay", "type": "cell-based"}, "[32]": {"system": "A549", "assay": "Induction of cell cycle arrest in human A549 cells assessed as decrease in cell level at G2M phase after 24 to 48 hrs by propidium iodide staining-based flow cytometric analysis", "type": "functional"}, "[33]": {"system": "C6", "assay": "Induction of cell cycle arrest in rat C6 cells assessed as accumulation at G0/G1 phase after 24 to 48 hrs by propidium iodide staining-based flow cytometric analysis", "type": "functional"}, "[34]": {"system": "HT-29", "assay": "Induction of cell cycle arrest in human HT-29 cells assessed as accumulation at G0/G1 phase at 50 uM after 24 to 48 hrs by propidium iodide staining-based flow cytometric analysis", "type": "functional"}, "[35]": {"system": "HT-29", "assay": "Antiproliferative activity against human HT-29 cells after 96 hrs by MTT assay", "type": "functional, cell-based"}, "[36]": {"system": "A549", "assay": "Effect on CREB expression in human A549 cells at 10 to 50 uM after 0.5 to 24 hrs by Western blot analysis", "type": "functional, cell-based"}, "[37]": {"system": "C6", "assay": "Antiproliferative activity against rat C6 cells at 25 to 50 uM after 48 hrs by MTT assay in presence of p38 siRNA", "type": "functional, cell-based"}}, "note": "Active and inactive are the calls of the source. No cut-off for these calls is given here.", "data": [{"compound": "CC(C)(C)c1cc2nc(-c3cc(Cl)c(O)cc3O)sc(=O)c2s1", "values": [{"measurement": "Activity", "setting": "[1]", "result": "Dose-dependent effect"}, {"measurement": "Activity", "setting": "[2]", "result": "Dose-dependent effect"}, {"measurement": "IC50", "setting": "[2]; A549, 96 h", "result": 32.9, "unit": "µM"}, {"measurement": "Activity", "setting": "[3]", "result": "Dose-dependent effect"}, {"measurement": "Activity", "setting": "[4]", "result": "Dose-dependent effect"}, {"measurement": "Activity", "setting": "[5]", "result": "inactive"}, {"measurement": "Activity", "setting": "[6]", "result": "Non-toxic"}, {"measurement": "inhibition", "setting": "[7]", "result": "Dose-dependent effect"}, {"measurement": "Activity", "setting": "[8]", "result": "inactive"}, {"measurement": "Activity", "setting": "[9]", "result": "inactive"}, {"measurement": "Activity", "setting": "[10]", "result": "Dose-dependent effect"}, {"measurement": "Activity", "setting": "[11]", "result": "Dose-dependent effect"}, {"measurement": "Activity", "setting": "[12]", "result": "Dose-dependent effect"}, {"measurement": "IC50", "setting": "[12]; C6, 96 h", "result": 87.4, "unit": "µM"}, {"measurement": "Activity", "setting": "[13]", "result": "inactive"}, {"measurement": "Activity", "setting": "[14]", "result": "Dose-dependent effect"}, {"measurement": "Activity", "setting": "[15]", "result": "Dose-dependent effect"}, {"measurement": "Activity", "setting": "[16]", "result": "inactive"}, {"measurement": "Activity", "setting": "[17]", "result": "inactive"}, {"measurement": "Activity", "setting": "[18]", "result": "Active"}, {"measurement": "Activity", "setting": "[19]", "result": "Dose-dependent effect"}, {"measurement": "inhibition", "setting": "[20]", "result": "Dose-dependent effect"}, {"measurement": "Activity", "setting": "[21]", "result": "Non-toxic"}, {"measurement": "Activity", "setting": "[22]", "result": "Active"}, {"measurement": "Activity", "setting": "[23]", "result": "inactive"}, {"measurement": "Activity", "setting": "[24]", "result": "Active"}, {"measurement": "Activity", "setting": "[25]", "result": "inactive"}, {"measurement": "Activity", "setting": "[26]", "result": "Dose-dependent effect"}, {"measurement": "Activity", "setting": "[27]", "result": "inactive"}, {"measurement": "inhibition", "setting": "[28]", "result": "Dose-dependent effect"}, {"measurement": "Activity", "setting": "[29]", "result": "inactive"}, {"measurement": "Activity", "setting": "[30]", "result": "Non-toxic"}, {"measurement": "Activity", "setting": "[31]", "result": "Toxic"}, {"measurement": "Activity", "setting": "[32]", "result": "Dose-dependent effect"}, {"measurement": "Activity", "setting": "[33]", "result": "Dose-dependent effect"}, {"measurement": "Activity", "setting": "[34]", "result": "Dose-dependent effect"}, {"measurement": "Activity", "setting": "[35]", "result": "Dose-dependent effect"}, {"measurement": "IC50", "setting": "[35]; HT-29, 96 h", "result": 38.6, "unit": "µM"}, {"measurement": "Activity", "setting": "[36]", "result": "inactive"}, {"measurement": "Activity", "setting": "[37]", "result": "inactive"}]}]}
